Our source for the IC50 values is patent US20180008587A1, “THIOHYDANTOIN ANDROGEN RECEPTOR ANTAGONISTS FOR THE TREATMENT OF CANCER” (Jaressen Pharmaceutica NV, priority 2016, published 2018).

This assay has as its target T1, AR W741C (Homo sapiens, UniProt P10275, W742C).
T1 construct: expressed in transfected cells; host or cells: HepG2
T1 sequence (P10275 1-920 W742C): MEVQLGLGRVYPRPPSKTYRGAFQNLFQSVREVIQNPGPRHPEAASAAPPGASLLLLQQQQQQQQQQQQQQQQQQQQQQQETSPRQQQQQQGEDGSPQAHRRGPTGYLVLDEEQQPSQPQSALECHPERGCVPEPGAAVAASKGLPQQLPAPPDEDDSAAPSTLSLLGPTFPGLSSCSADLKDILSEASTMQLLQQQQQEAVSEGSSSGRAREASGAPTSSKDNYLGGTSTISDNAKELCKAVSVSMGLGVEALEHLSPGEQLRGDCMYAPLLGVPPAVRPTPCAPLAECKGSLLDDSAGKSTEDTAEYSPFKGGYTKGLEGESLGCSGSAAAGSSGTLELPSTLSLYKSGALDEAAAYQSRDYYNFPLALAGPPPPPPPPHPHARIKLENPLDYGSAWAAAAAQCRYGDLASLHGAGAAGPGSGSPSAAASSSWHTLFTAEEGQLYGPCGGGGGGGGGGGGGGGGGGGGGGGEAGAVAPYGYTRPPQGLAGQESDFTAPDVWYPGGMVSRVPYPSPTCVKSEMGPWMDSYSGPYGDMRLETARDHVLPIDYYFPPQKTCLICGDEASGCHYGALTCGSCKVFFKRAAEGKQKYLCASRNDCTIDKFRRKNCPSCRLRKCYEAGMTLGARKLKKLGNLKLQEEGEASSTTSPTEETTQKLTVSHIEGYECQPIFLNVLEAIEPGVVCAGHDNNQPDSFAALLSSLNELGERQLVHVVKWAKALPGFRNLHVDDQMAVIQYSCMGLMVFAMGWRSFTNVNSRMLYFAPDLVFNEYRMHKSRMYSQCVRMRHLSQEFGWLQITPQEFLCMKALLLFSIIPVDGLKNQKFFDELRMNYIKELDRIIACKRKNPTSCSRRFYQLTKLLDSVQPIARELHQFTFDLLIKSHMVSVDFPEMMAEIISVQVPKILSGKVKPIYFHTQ
The experiment in a line: Luciferase transcriptional reporter assay, mutant AR, HepG2, antagonist mode. It is filed as cell-based. As to conditions: HepG2, 90 pM R1881, 48 hours; * denotes incomplete inhibition (otherwise 100%); read-out: Antagonism; IC50, AR construct W741C. The procedure:
HepG2 cells were maintained in EMEM supplemented with 10% FBS. One day before transfection, the media was changed to EMEM with 10% CSS. T-150 flasks were transiently transfected using 120 μL Lipofectamine 2000 (Life Technologies), 30 μg mutant cDNA (expression vector)—mutant cDNA tested were L701H, T877A, W741C and H874Y—and 40 μg 4×ARE-Luciferase (reporter vector) in OptiMEM and the flasks were incubated overnight. Cells were then trypsinized, counted and resuspended at 500,000 cells/mL. For agonist mode, the compounds of Formula (I) are serially diluted and 50 μL of the compound added per well. 50 μL of the cells are added to each well and incubated for 48 hours. For antagonist mode, a final concentration of 90 pM R1881 was added to the diluted compounds and incubated for 48 hours. The plates were then assayed using SteadyGlo and read on the Envision. Percent Stimulation and Inhibition is determined and analyzed using GraphPad Prism.
All values are calculated relative to the activity of R1881 induced androgen receptor activity (n≧3).
(In a reporter assay the amount or activity of a reporter protein is the signal.)

On to `N#Cc1ncc(N2C(=O)C3(CCC3)N(c3ccc(OC4CCNCC4)cc3)C2=S)cc1C(F)(F)F` [Cpd 35, 5-[5-oxo-8-[4-(4-piperidyloxy)phenyl]-7-thioxo-6,8-diazaspiro[3.4]octan-6-yl]-3-(trifluoromethyl)pyridine-2-carbonitrile], for which the IC50 was found to be 5.79 µM.
